Assay results: paper PMC7601839, “Anti-Acne Effects of Cembrene Diterpenoids from the Cultured Soft Coral Sinularia flexibilis” (Marine Drugs, 2020)

Legend:
iNOS [1] = tested on: iNOS; set-up: method as in PMID 23774887; conditions: LPS-stimulated RAW264.7 macrophage cells; cited from earlier work
COX-2 [2] = tested on: COX-2; set-up: method as in PMID 23774887; conditions: LPS-stimulated RAW264.7 macrophage cells; cited from earlier work
[3] = tested on: LPS-induced RAW 264.7 cells (NO production); test: NO production (Griess) in LPS-induced RAW 264.7 cells; assay type: cell-based; conditions: for inhibition at 20 µM / IC50: Mus musculus, RAW264.7, 24 h; for IC50: read-out: IC50 Value of NO Inhibition
Procedure: (§1) Anti-inflammatory effects were analyzed in RAW 264.7 cells, which were cultured in DMEM with 10% FBS, 1% L-glutamine, and 1% penicillin-streptomycin, and maintained at 37 °C in a 5% CO2 atmosphere. RAW 264.7 cells (4.0 × 10^5 cells/mL) were seeded in 96-well plates and co-treated with LPS (500 ng/mL) and test samples. After 24 h, NO production was determined by Griess reagent, and the absorption was detected at 530 nm. The percentage inhibition of NO production was presented as the anti-inflammatory activity. PGE2 concentrations in cell culture media were determined with a PGE2 enzyme-linked immunosorbent assay (ELISA) kit (Enzo Life Sciences, Farmingdale, NY, USA). The survival rate of RAW 264.7 cells was detected using an MTT assay.

[4] = Survival rate of RAW 264.7 cells by MTT assay; assay type: cell-based; conditions: mouse, LPS-induced RAW 264.7 cells, read-out: Cell Viability (%)
Procedure: as §1

HaCaT cells [5] = conditions: 20 nM, 48 h
Procedure: (§5) HaCaT cells (10^5 cells/mL) were seeded in 96-well plates and co-treated with testosterone (5 μg/mL) or DHT (5 μg/mL) and test samples with no cytotoxicity for 48 h [2, 25, 26]. Cell proliferative activity was detected by an MTT assay.

HaCaT cells [6] = test: cells; conditions: Homo sapiens, read-out: HaCaT cell viability
Procedure: as §5

[7] = tested on: LPS-induced RAW 264.7 cells (PGE2 production); test: PGE2 production (ELISA) in LPS-induced RAW 264.7 cells; assay type: cell-based; conditions: for inhibitory effect on prostaglandin E2 (PGE2) production: 24 h
Procedure: as §1

[8] = tested on: HKC-induced RAW 264.7 cells (NO production); test: NO production (Griess) in heat-killed C. acnes (HKC)-induced RAW 264.7 cells; assay type: cell-based; conditions: Mus musculus, RAW264.7, 24 h, read-out: IC50 Value of NO Inhibition
Procedure: (§2) C. acnes (4 × 10^8 cfu/mL) was heated at 80 °C for 30 min and killed. Heat-killed C. acnes (HKC) was freeze-dried as a powder and maintained at 4 °C until use. RAW 264.7 and HaCaT cells were cultured in DMEM with 10% FBS, 1% penicillin-streptomycin, and 1% L-glutamine at 37 °C in a 5% CO2 atmosphere. RAW 264.7 cells (4 × 10^5 cells/mL) and HaCaT cells (10^5 cells/mL) were seeded in six-well plates and co-treated with HKC (300 μg/mL) and test samples [24]. After 24 h, NO production was determined by adding the Griess reagent in the cell culture medium, and the absorption was measured in an ELISA reader at 530 nm. The sample culture medium was removed, and RAW 264.7 cells and HaCaT cells were washed with PBS.

p-ERK [9] = test: Western blot of p-ERK in LPS-induced RAW 264.7 cells; assay type: cell-based; conditions: 30 min, SC-2 2.5–20 μM, SC-7 5–40 μM, SC-9 2.5–20 μM
Procedure: (§3) Whole-cell lysates were prepared using radioimmunoprecipitation (RIPA) assay. Proteins in lysate samples (30 μg) were analyzed using 10% sodium dodecylsulfate-polyacrylamide gel electrophoresis (SDS-PAGE). Gels were transferred to nitrocellulose membranes and probed with primary iNOS (clone N-20), COX-2 (clone C-20), p-ERK (clone N-20), p-JNK (clone N-20), and glyceraldehyde-3-phosphate dehydrogenase (GAPDH; clone 6C5) antibodies (Santa Cruz Biotechnology, Santa Cruz, CA, USA). Membranes were visualized with a BCIP/NBT kit (Gibco BRL, Grand Island, NY, USA). Protein expression was quantified using the Azure Biosystem C300 Imaging System. GAPDH expression was used as an internal control to compare with protein expressions of iNOS, COX-2, p-ERK, and p-JNK [24].

p-JNK [10] = test: Western blot of p-JNK in LPS-induced RAW 264.7 cells; assay type: cell-based; conditions: 30 min, SC-2 2.5–20 μM, SC-7 5–40 μM, SC-9 2.5–20 μM
Procedure: as §3

COX-2 [11] = test: Western blot of COX-2 in LPS-induced RAW 264.7 cells; assay type: cell-based; conditions: 6 h and 24 h
Procedure: as §3

iNOS [12] = test: Western blot of iNOS in LPS-induced RAW 264.7 cells; assay type: cell-based; conditions: 24 h
Procedure: as §3

p-ERK [13] = test: Western blot of p-ERK in HKC-treated RAW 264.7 cells; assay type: cell-based; conditions: SC-2 2.5–20 μM, SC-7 5–40 μM, SC-9 2.5–20 μM
Procedure: as §3, §2

p-JNK [14] = test: Western blot of p-JNK in HKC-treated RAW 264.7 cells; assay type: cell-based; conditions: SC-2 2.5–20 μM, SC-7 5–40 μM, SC-9 2.5–20 μM
Procedure: as §3, §2

iNOS [15] = test: Western blot of iNOS in HKC-treated RAW 264.7 cells; assay type: cell-based
Procedure: as §3, §2

COX-2 [16] = test: Western blot of COX-2 in HKC-treated RAW 264.7 cells; assay type: cell-based
Procedure: as §3, §2

HaCaT cells [17] = test: Cytotoxicity analysis in HaCaT cells; assay type: cell-based, human
p-ERK [18] = test: Western blot of p-ERK in HKC-treated HaCaT cells; assay type: cell-based, human; conditions: 30 min after HKC induction
Procedure: as §3, §2

[19] = tested on: Testosterone-induced HaCaT cells; test: Anti-proliferative activity in testosterone-treated HaCaT cells (MTT); assay type: cell-based, human; conditions: for testosterone-induced HaCaT cell proliferation: SC-2 1.25–5, SC-7 2.5–10, SC-9 0.08–0.32 μM, 48 h
Procedure: (§4) HaCaT cells (10^5 cells/mL) were seeded in 96-well plates and co-treated with testosterone (5 μg/mL) or DHT (5 μg/mL) and test samples with no cytotoxicity for 48 h. Cell proliferative activity was detected by an MTT assay.

[20] = tested on: Dihydrotestosterone-induced HaCaT cells; test: Anti-proliferative activity in dihydrotestosterone-treated HaCaT cells (MTT); assay type: cell-based, human; conditions: for keratinocyte over-proliferation by DHT: HaCaT keratinocytes
Procedure: as §4

Compound | accumulation of the proinflammatory iNOS protein (iNOS [1]) | accumulation of COX-2 protein (COX-2 [2]) | inhibition at 20 µM [3] [%] | viability at 24 h, 20 µM [4] [%] | IC50 [3] [µM] | inhibitory effect on prostaglandin E2 (PGE2) production [7] | IC50 [8] [µM] | p-ERK protein expression (p-ERK [9]) | p-JNK protein expression (p-JNK [10]) | COX-2 protein expression (COX-2 [11]) | iNOS protein expression (iNOS [12]) | p-ERK expression (p-ERK [13]) | p-JNK expression (p-JNK [14]) | iNOS expression (iNOS [15]) | COX-2 expression (COX-2 [16]) | concentrations with no cytotoxicity to HaCaT cells (HaCaT cells [17]) [nM] | p-ERK protein expression (p-ERK [18]) | testosterone-induced HaCaT cell proliferation [19] | keratinocyte over-proliferation by DHT [20] | further results
C=C1C(=O)O[C@]2(C)CC[C@@H]1C[C@@H]1O[C@@]1(C)CC/C=C(\C)CC[C@H]2O [11-epi-sinulariolide] | significantly inhibit | could reduce |  |  |  |  |  |  |  |  |  |  |  |  |  |  |  |  |  | 
C=C(C(=O)O)[C@@H]1CC[C@@](C)(O)[C@@H]2CC[C@@](C)(O2)[C@@H](OC(C)=O)CC[C@]2(C)O[C@H]2C1 [SC-6, dendronpholide F] |  |  | -15.1 | 96.1 ± 0.4 |  |  |  |  |  |  |  |  |  |  |  |  |  |  |  | inhibitory effects on NO expression [3]: no inhibitory effects
C[C@]12CCC(=O)C[C@@H]1CC[C@@H]1[C@@H]2CC[C@]2(C)[C@@H](O)CC[C@@H]12 [DHT, dihydrotestosterone] |  |  |  |  |  |  |  |  |  |  |  |  |  |  |  |  |  |  |  | HaCaT cell proliferation (HaCaT cells [5]): significantly induced; viability at 0.1 µg/mL (HaCaT cells [6]): 97.6%; viability at 0.5 µg/mL (HaCaT cells [6]): 103%; viability at 1 µg/mL (HaCaT cells [6]): 105%; viability at 5 µg/mL (HaCaT cells [6]): 118%
flexibilisolides C | significantly inhibit | could reduce |  |  |  |  |  |  |  |  |  |  |  |  |  |  |  |  |  | 
C=C1C(=O)O[C@@H]2C[C@H]1CC[C@]1(C)O[C@H]1CC/C(C)=C/CC[C@]2(C)O [SC-9, sinularin] |  |  | 102 ± 1.4 | 98.9 | 3.85 ± 0.25 | no inhibitory effect | 2.81 ± 0.2 | dose-dependent inhibitory effects | dose-dependent inhibitory effects | more significant COX-2 inhibitory effects at 6 h than that at 24 h | decreased iNOS protein expression | good inhibitory effects | good inhibitory effects | significant inhibitory effects | no changes | 312 to 2500 | significant inhibitory effects | significantly decreased | inhibited keratinocyte over-proliferation | IC50 ([7]; Mus musculus, RAW264.7, 6 h, read-out: IC50 Value of PGE2 Inhibition): 6.22 µM; growth inhibition of HaCaT cells (HaCaT cells [17]; at high doses): caused growth inhibition; inhibition at 0.08 µM ([19]; Homo sapiens, testosterone-induced HaCaT cells, 0.08 μM): 6.5 ± 0.5%; inhibition at 0.16 µM ([19]; Homo sapiens, testosterone-induced HaCaT cells, 0.16 μM): 11.5 ± 1.3%; inhibition at 0.32 µM ([19]; Homo sapiens, testosterone-induced HaCaT cells, 0.32 μM): 19.1 ± 1.3%; inhibition at 0.08 µM ([20]; Homo sapiens, dihydrotestosterone-induced HaCaT cells, 0.08 μM): 8.5 ± 0.7%; inhibition at 0.16 µM ([20]; Homo sapiens, dihydrotestosterone-induced HaCaT cells, 0.16 μM): 16 ± 0.7%; inhibition at 0.32 µM ([20]; Homo sapiens, dihydrotestosterone-induced HaCaT cells, 0.32 μM): 18 ± 3.1%
C=C1C(=O)OC2(C)CCC1CC1OC1(C)CCC(OC(C)=O)C1(C)CCC2O1 (stereo not shown) [SC-7, 3,4:8,11-bisepoxy-7-acetoxycembra-15(17)-en-1,12-olide] | significantly inhibit |  | 50.2 ± 5.5 | 96.1 ± 8.4 | 15.2 ± 0.25 | no inhibitory effect | 7.42 ± 0.4 | dose-dependent inhibitory effects | dose-dependent inhibitory effects | did not present identical COX-2 inhibitory effects | decreased iNOS protein expression | good inhibitory effects | good inhibitory effects | significant inhibitory effects | no changes | 5000 to 40000 | significant inhibitory effects | significantly decreased | inhibited keratinocyte over-proliferation | inhibition at 2.5 µM ([19]; Homo sapiens, testosterone-induced HaCaT cells, 2.5 μM): 13.2 ± 0.7%; inhibition at 5 µM ([19]; Homo sapiens, testosterone-induced HaCaT cells, 5 μM): 14 ± 2%; inhibition at 10 µM ([19]; Homo sapiens, testosterone-induced HaCaT cells, 10 μM): 20.8 ± 0.9%; inhibition at 2.5 µM ([20]; Homo sapiens, dihydrotestosterone-induced HaCaT cells, 2.5 μM): 9.5 ± 3.2%; inhibition at 5 µM ([20]; Homo sapiens, dihydrotestosterone-induced HaCaT cells, 5 μM): 13.1 ± 2.9%; inhibition at 10 µM ([20]; Homo sapiens, dihydrotestosterone-induced HaCaT cells, 10 μM): 13.8 ± 0.8%
